{"source": "patent US20220280473A1", "about": "“COMPOSITIONS AND METHODS FOR MODULATING EPITHELIAL-MESENCHYMAL TRANSITION” (AUCKLAND UNISERVICES LIMITED, priority 2021, published 2022)", "type_in_all_cases": "cell-based, Human", "key": {"[1]": {"tested_on": "ARPE-19 cells", "assay": "Cell migration (scrape wound) assay after HG+Cyt insult", "conditions": "ARPE-19, HG+Cyt plus tonabersat 100 μM", "method": "(§1) Human adult retinal pigment epithelial cells (ARPE-19; American Type Culture Collection, USA) were cultured in Dulbecco's modified Eagle medium F-12 (DMEM-F12; Thermofisher Scientific Inc., USA) supplemented with 10% foetal bovine serum ([…]: Invitrogen, USA) and a 1× antibiotics and antimycotics mixture (AA, 100× stock) at 37° C. in a humidified 5% CO2 incubator. Cells were grown in T75 flasks, and the medium was changed twice per week until confluent.\n(§2) At passages 15-18, cells were plated at 2.5×10^5 cells/mL in 8-well chamber slides for immunohistochemical studies, 6-well plates with inserts for fluorescein isothiocyanate (FITC)-dextran dye leak and transepithelial electrical resistance (TEER) measurements, and 24-well plates for cell migration studies. Once confluent, cells were treated as three separate groups: untreated, insult of HG+Cyt, or HG+Cyt insult plus tonabersat treatment (HG+Cyt+Ton). The insult of HG+Cyt was used to induce DR-like conditions as has been previously described (Kuo et al., 2020; Mugisho et al., 2018a, 2018b), and consisted of a combination of 32.5 mM HG and the pro-inflammatory cytokines; tumour necrosis factor alpha (TNF-α; 10 ng/mL; Peprotech, USA) and interleukin-1 beta (IL-1β; 10 ng/mL; Peprotech, USA).\nTonabersat (MedChemExpress, NJ, USA) was administered at a concentration of 100 μM to cells at the same time as the HG+Cyt insult (HG+Cyt+Ton). […]\nTo determine cell migration rates following 72 h treatment, a scrape wound was created in the cell monolayer by drawing a 1000 μL pipette tip vertically over the cells by hand, and the width of the wound measured over time. […] The width of the scrape was measured with the line tool and “measure” feature in ImageJ at eight regular intervals (guided using a grid overlay) within each image. […] The scrape wound width was quantified relative to the post-scrape width at time 0 h and converted to a percentage scrape closure for each condition. […]"}, "[2]": {"tested_on": "ARPE-19 cells", "assay": "RPE65 expression by quantitative immunocytochemistry after HG+Cyt insult", "method": "as §1\n(§3) At passages 15-18, cells were plated at 2.5×10^5 cells/mL in 8-well chamber slides for immunohistochemical studies, 6-well plates with inserts for fluorescein isothiocyanate (FITC)-dextran dye leak and transepithelial electrical resistance (TEER) measurements, and 24-well plates for cell migration studies. Once confluent, cells were treated as three separate groups: untreated, insult of HG+Cyt, or HG+Cyt insult plus tonabersat treatment (HG+Cyt+Ton). […]\n(§4) Fluorescence images were taken on an Olympus FV1000 confocal laser scanning microscope (Olympus, Japan), and processed using Olympus FV10-ASW viewer and ImageJ software (Version 1.52a, National Institute of Health, USA). […] RPE65 and α-SMA expression was quantified by measuring the mean fluorescence intensity (MFI). […] The ratio of α-SMA to RPE65 expression was additionally calculated by (α-SMA MFI/RPE65 MFI). ZO-1 was qualitatively assessed for changes in localisation."}, "[3]": {"tested_on": "ARPE-19 cells", "assay": "α-SMA expression by quantitative immunocytochemistry after HG+Cyt insult", "conditions": "for α-SMA to RPE65 expression ratio / α-SMA expression (mean fluorescence intensity, compared to untreated levels): ARPE-19, HG+Cyt insult plus tonabersat 100 μM; for α-SMA to RPE65 expression ratio: α-SMA MFI/RPE65 MFI", "method": "as §1, §2\n(§5) Tonabersat (MedChemExpress, NJ, USA) was administered at a concentration of 100 μM to cells at the same time as the HG+Cyt insult (HG+Cyt+Ton). To achieve this tonabersat was dissolved in 100% DMSO at a concentration of 100 mM and then 1 μl of the stock solution was added to 999 μl of culture medium containing HG+Cyt. Cells were incubated under treatment conditions for 72 h unless otherwise stated. Brightfield images were taken using a light microscope at 24, 48, and 72 h post-treatment. All experiments were repeated thrice.\nCells were fixed with 4% paraformaldehyde for 10 min and permeabilized with 0.1% Triton X-100 in phosphate-buffered saline (PBS) for 10 min. Cells were blocked in normal goat or horse serum for 1 h, and then incubated overnight at 4° C. with either mouse anti-RPE65 (1:1000; Abcam, UK) and goat anti-α-SMA (1:200; Abcam, UK), or rabbit anti-ZO-1 (1:1000; Invitrogen, USA). Two 10 min washes followed in PBS, after which cells were incubated at room temperature for 2 h with their respective secondary antibodies; donkey anti-rabbit Alexa-488 (1:500; Abcam, UK), donkey anti-mouse Alexa-488 (1:500; Abcam, UK) or donkey anti-goat Cy3 (1:500; Invitrogen, USA). Cells were washed in PBS twice for 10 min. Cell nuclei were stained with DAPI (1:1000; Sigma-Aldrich, USA), and slides were mounted using Citifluor™ anti-fade reagent and sealed with nail varnish.\nFluorescence images were taken on an Olympus FV1000 confocal laser scanning microscope (Olympus, Japan), and processed using Olympus FV10-ASW viewer and ImageJ software (Version 1.52a, National Institute of Health, USA). Five images were taken from a single chamber per condition and repeated in three separate experiments. RPE65 and α-SMA expression was quantified by measuring the mean fluorescence intensity (MFI). Data is presented relative to the respective untreated group. The ratio of α-SMA to RPE65 expression was additionally calculated by (α-SMA MFI/RPE65 MFI). ZO-1 was qualitatively assessed for changes in localisation."}, "[4]": {"tested_on": "ARPE-19 cells", "assay": "Cx43 cell membrane localization, immunolabelling", "conditions": "ARPE-19, HG+Cyt insult plus tonabersat, qualitative"}, "[5]": {"tested_on": "ARPE-19 cells", "assay": "Transepithelial electrical resistance (TEER) of cell monolayer", "conditions": "ARPE-19 monolayer, HG+Cyt plus tonabersat 100 μM", "method": "as §1, §2, §5\nTo determine the effect of conditions on the TEER of the cell monolayer, cells were again seeded into the inserts of 6-well Transwell® plates (Corning Incorporated, USA), with additional medium in the base. […] TEER values were quantified relative to the 0 h values for each respective group. […]"}, "[6]": {"tested_on": "ARPE-19 cells", "assay": "TGF-β1 and TGF-β2 release after HG+Cyt insult", "conditions": "HG+Cyt insult plus tonabersat"}, "[7]": {"tested_on": "ARPE-19 cells", "assay": "ZO-1 tight junction localisation, immunocytochemistry", "conditions": "ARPE-19, HG+Cyt insult plus tonabersat 100 μM, qualitative", "method": "as §1, §3, §4"}}, "note": "“Also recorded” adds a separate entry of the source."}
{"compound": "CC(=O)c1ccc2c(c1)[C@H](NC(=O)c1ccc(F)c(Cl)c1)[C@H](O)C(C)(C)O2", "note": "[tonabersat, N-[(3S,4S)-6-acetyl-3-hydroxy-2,2-dimethyl-3,4-dihydrochromen-4-yl]-3-chloro-4-fluorobenzamide]", "values": [{"measurement": "scrape wound percentage closure", "setting": "[1]; 4 h post-scrape vs 0 h scrape width", "result": "no significant difference in percentage closure"}, {"measurement": "scrape wound percentage closure", "setting": "[1]; 24 h post-scrape relative to 0 h width", "result": "33.8±9.6", "unit": "%"}, {"measurement": "scrape wound percentage closure", "setting": "[1]; 24 h post-scrape relative to 0 h width, listed as HG+Cyt+Ton", "result": "reduction in scrape wound closure"}, {"measurement": "RPE65 expression (mean fluorescence intensity relative to untreated group)", "setting": "[2]; ARPE-19, HG+Cyt insult plus tonabersat 100 μM, 72 h, comparison with HG+Cyt and untreated groups, listed as HG+Cyt+Ton", "result": "not being significantly different to either group; also recorded: no statistically significant difference"}, {"measurement": "RPE65 expression decrease following HG+Cyt insult (immunolabelling images)", "setting": "[2]; ARPE-19, co-application of tonabersat, FIG. 2 qualitative", "result": "prevented"}, {"measurement": "α-SMA to RPE65 expression ratio", "setting": "[3]; 24 h", "result": 1.1}, {"measurement": "α-SMA expression (mean fluorescence intensity, compared to untreated levels)", "setting": "[3]; 72 h", "result": "75.5±8.4", "unit": "%"}, {"measurement": "α-SMA expression (mean fluorescence intensity, compared to untreated levels)", "setting": "[3]; 72 h, listed as HG+Cyt+Ton", "result": "significantly reduced"}, {"measurement": "α-SMA to RPE65 expression ratio", "setting": "[3]; 72 h", "result": 0.8}, {"measurement": "α-SMA expression increase and striation following HG+Cyt insult (immunolabelling images)", "setting": "[3]; ARPE-19, addition of tonabersat, FIG. 2 qualitative", "result": "changes were prevented"}, {"measurement": "Cx43 cell membrane localization", "setting": "[4]", "result": "maintained Cx43 localization"}, {"measurement": "TEER relative to 0 h value", "setting": "[5]; 24 h", "result": "99.5±1.2", "unit": "%"}, {"measurement": "TEER relative to 0 h value", "setting": "[5]; 48 h", "result": "114.9±3.2", "unit": "%"}, {"measurement": "TEER relative to 0 h value", "setting": "[5]; 72 h", "result": "97.7±1.1", "unit": "%"}, {"measurement": "HG+Cyt induced TGF-β2 release", "setting": "[6]; 24 h", "result": "prevented HG+Cyt induced TGF-β2 release back to untreated levels"}, {"measurement": "TGF-β1 and 2 levels", "setting": "[6]; 72 h", "result": "no significant differences between all groups"}, {"measurement": "ZO-1 cell membrane localization", "setting": "[7]", "result": "maintained ZO-1 localization at the cell membrane; also recorded: prevented loss of ZO-1 cell membrane localization"}]}
